Key:
[1] = Chronic OXT analog treatment in DIO mice; assay type: in vivo, C57BL/6 DIO mice; conditions: vs vehicle
[2] = Food intake study with free-hand ICV injection; assay type: in vivo, male C57BL/6 mice; conditions: 3 μg per mouse ICV
[3] = Pharmacokinetic measurement by mass spectrometry in mice; assay type: in vivo, C57BL/6 mice
[4] = Rat blood pressure telemetry; assay type: in vivo, DIO male Long-Evans rats; conditions: IP 0.3, 1, 3 mg/kg, DIO Long-Evans rats
Acute food intake study = assay type: in vivo, male C57BL/6 mice; conditions: conivaptan 0.5 mg/kg IP coadministered with OXT 2 mg/kg IP, Fig. 3F
human OXTR = molecular target: T1, human OXTR (Homo sapiens, UniProt P30559); experiment: FLIPR calcium assay, AV12 cells stably expressing human OXTR; assay type: cell-based; conditions: Fig. 1 and Dryad data [67]; for receptor selectivity against vasopressin receptors (in words): OXTR vs V1a, V1b (FLIPR) and V2 (cAMP); for OXTR activity / potency (in words): in vitro OXTR assay
T1 sequence (P30559 1-389): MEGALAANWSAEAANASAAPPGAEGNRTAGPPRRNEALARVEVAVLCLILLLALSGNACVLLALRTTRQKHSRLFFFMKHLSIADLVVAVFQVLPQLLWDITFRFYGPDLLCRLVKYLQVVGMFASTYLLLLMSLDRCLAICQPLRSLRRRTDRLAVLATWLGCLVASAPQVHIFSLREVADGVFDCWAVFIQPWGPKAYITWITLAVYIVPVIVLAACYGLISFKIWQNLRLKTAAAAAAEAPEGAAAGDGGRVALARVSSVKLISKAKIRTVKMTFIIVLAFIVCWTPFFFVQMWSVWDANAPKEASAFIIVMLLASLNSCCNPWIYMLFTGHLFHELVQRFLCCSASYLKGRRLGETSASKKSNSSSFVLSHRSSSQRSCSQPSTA

[5] = C57BL/6, mouse, plasma, ip, 1 mg/kg

Compound: CC[C@H](C)[C@@H]1NC(=O)[C@H](Cc2ccc(O)cc2)NC(=O)[C@@H](N)CSSC[C@@H](C(=O)N2CCC[C@H]2C(=O)N[C@@H](CC(C)C)C(=O)NCC(N)=O)NC(=O)[C@H](CC(N)=O)NC(=O)[C@H](CCC(N)=O)NC1=O [OXT, oxytocin]
- serum potassium level [1]: significantly lower
- behavior during first hour after ICV injection (vocalization, grooming) [2]: clinical signs of behavioral distress
- time until plasma level dropped below detection ([3]; 1 mg/kg IP, single dose, Fig. 2A): < 3 h
- Tmax [3, 5]: ~30 min
- half-life [3, 5]: < 30 min
- mean arterial pressure (MAP) [4]: dose-dependently caused a statistically significant increase of MAP

Compound: Cc1nc2c([nH]1)-c1ccccc1N(C(=O)c1ccc(NC(=O)c3ccccc3-c3ccccc3)cc1)CC2 [conivaptan]
- effect on OXT-induced food intake suppression (Acute food intake study): abolished OXT’s effect on food intake suppression

Compound: TC OT39
- receptor selectivity against vasopressin receptors (in words) (human OXTR): high degree of OXTR selectivity
- OXTR activity / potency (in words) (human OXTR): significantly decreased potency (EC50) and efficacy (Emax)

Compound: carbetocin [OXT^Butyryl]
- receptor selectivity against vasopressin receptors (in words) (human OXTR): increased receptor selectivity against vasopressin receptors
- OXTR activity / potency (in words) (human OXTR): without affecting OXTR activation

Source: paper PMC6608564 (Journal of the Endocrine Society, 2019)
